Assay type in all cases: functional
Assay [1] relates to Candida albicans. Description: Antifungal activity against Candida albicans CPCC400616 measured after 24 hrs by broth microdilution assay. (In broth dilution the organism is exposed to a series of concentrations in liquid medium.)
For assay [2], the system named is Candida albicans. As to the kind of experiment: Antifungal activity against Candida albicans ATCC SC5314 measured after 24 hrs by broth microdilution assay.
Assay [3] concerns [Candida] zeylanoides. Description: Antifungal activity against Candida zeylanoides CMGCC2.3739 measured after 24 hrs by broth microdilution assay. The settings on record: Dujonia zeylanoides.
Assay [4] deals with Cryptococcus neoformans. As to the kind of experiment: Antifungal activity against Cryptococcus neoformans CMGCC2.3161 measured after 72 hrs by broth microdilution assay.
For assay [5], the system named is Pichia kudriavzevii. As to the kind of experiment: Antifungal activity against Candida krusei AS2.1045 measured after 24 hrs by broth microdilution assay.
For assay [6], the system named is Nakaseomyces glabratus. Description: Antifungal activity against Candida glabrata measured after 24 hrs by broth microdilution assay.
In assay [7] the test system is Candida parapsilosis. As to the kind of experiment: Antifungal activity against Candida parapsilosis ATCC 22019 measured after 24 hrs by broth microdilution assay. The settings on record: Lodderomyces parapsilosis.
Assay [8] has as its system Aspergillus fumigatus. As to the kind of experiment: Antifungal activity against Aspergillus fumigatus CMGCC3.7795 measured after 72 hrs by broth microdilution assay.
Assay [9] has as its system Candida albicans. As to the kind of experiment: Antifungal activity against fluconazole-resistant Candida albicans CaR assessed as inhibition of microbial growth after 24 hrs by broth microdilution method.
The subject of assay [10] is Candida albicans. Description: Antifungal activity against fluconazole-resistant Candida albicans 17# assessed as inhibition of microbial growth after 24 hrs by broth microdilution method.
In assay [11] the test system is Candida albicans. As to the kind of experiment: Antifungal activity against fluconazole-resistant Candida albicans 632 assessed as inhibition of microbial growth after 24 hrs by broth microdilution method.
For assay [12], the system named is Candida albicans. As to the kind of experiment: Antifungal activity against fluconazole-resistant Candida albicans 901 assessed as inhibition of microbial growth after 24 hrs by broth microdilution method.
The test system of assay [13] is Candida albicans. As to the kind of experiment: Antifungal activity against fluconazole-resistant Candida albicans 904 assessed as inhibition of microbial growth after 24 hrs by broth microdilution method.
For assay [14], the system named is Candida albicans. Description: Potency index, ratio of fluconazole MIC to test compound MIC for Candida albicans CPCC400616 measured after 24 hrs by broth microdilution assay.

We go through eight molecules from ChEMBL document CHEMBL4813985, “Lead optimization generates selenium-containing miconazole CYP51 inhibitors with improved pharmacological profile for the treatment of fungal infections” (Eur J Med Chem, 2021).

SMILES strings stand for the structures. Values after ≈ are worked out from the molar mass of the structure shown.

A word on the MIC: it is the smallest concentration in the dilution series that meets the test's criterion for growth inhibition. For `Cc1ccc(C[Se]C(Cn2cncn2)c2ccc(Cl)cc2Cl)cc1` (stereo unspecified), the MIC was 16 µg/mL (≈ 37.6 µM) in assay [1]; 2 µg/mL (≈ 4.7 µM) in [2]; 128 µg/mL (≈ 301 µM) in assay [3]; 32 µg/mL (≈ 75.3 µM) in assay [4]; 64 µg/mL (≈ 151 µM) in assay [5]; 2 µg/mL (≈ 4.7 µM) in assay [6]. In addition, the MIC in assay [7] is 64 µg/mL (≈ 151 µM); in assay [8] it was 16 µg/mL (≈ 37.6 µM); in assay [9], over 128 µg/mL; in [10] it was over 128 µg/mL; in assay [11], over 128 µg/mL; in [12], over 128 µg/mL. Moreover, the MIC in [13] is over 128 µg/mL.
In the case of `Cc1ccc([Se]C(Cn2ccnc2)c2ccc(Cl)cc2Cl)cc1` (stereo unspecified), the MIC in assay [1] was 0.25 µg/mL (≈ 0.609 µM); in assay [2], 0.03 µg/mL (≈ 0.0731 µM); in [3], 0.25 µg/mL (≈ 0.609 µM); in [4], 0.13 µg/mL (≈ 0.317 µM); in assay [5], 0.5 µg/mL (≈ 1.22 µM); in assay [6] it was 0.25 µg/mL (≈ 0.609 µM). Further, the MIC is 0.5 µg/mL (≈ 1.22 µM) in assay [7]; 8 µg/mL (≈ 19.5 µM) in assay [8]; 32 µg/mL in assay [9]; 4 µg/mL in assay [10]; 4 µg/mL in [11]; 8 µg/mL in [12]. The MIC in [13] is 16 µg/mL. Also, in assay [14], the Ratio was determined as 8.
With `Cc1cc(C)cc([Se]C(Cn2ccnc2)c2ccc(Cl)cc2Cl)c1` (stereo unspecified), the MIC in assay [1] came to 0.5 µg/mL (≈ 1.18 µM); in assay [2], 0.06 µg/mL (≈ 0.141 µM); in assay [3], 0.5 µg/mL (≈ 1.18 µM); in assay [4], 0.5 µg/mL (≈ 1.18 µM); in assay [5] it was 0.5 µg/mL (≈ 1.18 µM); in assay [6], 0.25 µg/mL (≈ 0.589 µM). Also, the MIC in assay [7] came to 0.5 µg/mL (≈ 1.18 µM); in [8], 8 µg/mL (≈ 18.9 µM); in assay [9] it was 8 µg/mL; in [10], 16 µg/mL; in assay [11], 16 µg/mL; in assay [12], 4 µg/mL. Besides, in assay [13], the MIC came to 16 µg/mL. For the same molecule, the Ratio in assay [14] was 8.
For `Clc1ccc(C[Se]C(Cn2cncn2)c2ccc(Cl)cc2Cl)cc1` (stereo unspecified), the MIC in [1] was determined as 16 µg/mL (≈ 35.9 µM); in [2], 2 µg/mL (≈ 4.49 µM); in assay [3] it was 128 µg/mL (≈ 287 µM); in assay [4] it was 16 µg/mL (≈ 35.9 µM); in assay [5] it was 128 µg/mL (≈ 287 µM); in [6], 2 µg/mL (≈ 4.49 µM). Also, the MIC is 64 µg/mL (≈ 144 µM) in assay [7]; 16 µg/mL (≈ 35.9 µM) in assay [8]; over 128 µg/mL in [9]; over 128 µg/mL in assay [10]; over 128 µg/mL in assay [11]; over 128 µg/mL in [12]. The MIC in assay [13] was over 128 µg/mL.
As for `Clc1ccc(C(Cn2cncn2)[Se]Cc2ccccc2Cl)c(Cl)c1` (stereo unspecified), the MIC in assay [1] stood at 0.03 µg/mL (≈ 0.0673 µM); in [2], 0.13 µg/mL (≈ 0.292 µM); in assay [3], 16 µg/mL (≈ 35.9 µM); in assay [4], 2 µg/mL (≈ 4.49 µM); in assay [5] it was 0.06 µg/mL (≈ 0.135 µM); in assay [6], 4 µg/mL (≈ 8.98 µM). The MIC in assay [7] was 8 µg/mL (≈ 18 µM); in [8], 16 µg/mL (≈ 35.9 µM); in [9] it was over 128 µg/mL; in assay [10], 8 µg/mL; in assay [11], over 128 µg/mL; in assay [12], over 128 µg/mL. The MIC in assay [13] stood at 32 µg/mL.
As to `Cc1ccc(C[Se]C(Cn2cncn2)c2ccc(F)cc2F)cc1` (stereo unspecified), the minimum inhibitory concentration (MIC) in assay [1] was 2 µg/mL (≈ 5.1 µM); in [2], 2 µg/mL (≈ 5.1 µM); in assay [3] it was 32 µg/mL (≈ 81.6 µM); in [4] it was 4 µg/mL (≈ 10.2 µM); in assay [5], 128 µg/mL (≈ 326 µM); in assay [6], 2 µg/mL (≈ 5.1 µM). Besides, the MIC is 128 µg/mL (≈ 326 µM) in [7]; 8 µg/mL (≈ 20.4 µM) in assay [8]; over 128 µg/mL in assay [9]; 64 µg/mL in assay [10]; over 128 µg/mL in [11]; over 128 µg/mL in assay [12]. Besides, in assay [13], the MIC was over 128 µg/mL.
Turning to `Fc1ccc(C[Se]C(Cn2cncn2)c2ccc(Cl)cc2Cl)cc1` (stereo unspecified), the MIC in [1] amounted to 2 µg/mL (≈ 4.66 µM); in assay [2], 0.13 µg/mL (≈ 0.303 µM); in assay [3] it was 64 µg/mL (≈ 149 µM); in [4], 8 µg/mL (≈ 18.6 µM); in [5], 128 µg/mL (≈ 298 µM); in assay [6] it was 4 µg/mL (≈ 9.32 µM). Besides, the MIC is 64 µg/mL (≈ 149 µM) in assay [7]; 16 µg/mL (≈ 37.3 µM) in [8]; over 128 µg/mL in assay [9]; over 128 µg/mL in assay [10]; over 128 µg/mL in [11]; over 128 µg/mL in assay [12]. Also, the MIC in assay [13] is over 128 µg/mL.
With `COc1ccc(C[Se]C(Cn2cncn2)c2ccc(Cl)cc2Cl)cc1` (stereo unspecified), the MIC turned out to be 16 µg/mL (≈ 36.3 µM) in assay [1]; 1 µg/mL (≈ 2.27 µM) in [2]; 32 µg/mL (≈ 72.5 µM) in [3]; 16 µg/mL (≈ 36.3 µM) in assay [4]; 64 µg/mL (≈ 145 µM) in assay [5]; 4 µg/mL (≈ 9.07 µM) in assay [6]. Moreover, the MIC in [7] was 32 µg/mL (≈ 72.5 µM); in [8], 4 µg/mL (≈ 9.07 µM); in [9], 128 µg/mL; in assay [10], 32 µg/mL; in [11] it was over 128 µg/mL; in [12] it was 128 µg/mL. The MIC in [13] is 128 µg/mL.
